The values that follow come from patent US10933063B2 (priority 2017, dated 2021).

Each structure is given as a SMILES string.

The assay addresses BTK (Homo sapiens (Human), UniProt Q06187). Nature of the assay: biochemical.

Chain of BTK (Q06187 whole entry, looked up, species assumed): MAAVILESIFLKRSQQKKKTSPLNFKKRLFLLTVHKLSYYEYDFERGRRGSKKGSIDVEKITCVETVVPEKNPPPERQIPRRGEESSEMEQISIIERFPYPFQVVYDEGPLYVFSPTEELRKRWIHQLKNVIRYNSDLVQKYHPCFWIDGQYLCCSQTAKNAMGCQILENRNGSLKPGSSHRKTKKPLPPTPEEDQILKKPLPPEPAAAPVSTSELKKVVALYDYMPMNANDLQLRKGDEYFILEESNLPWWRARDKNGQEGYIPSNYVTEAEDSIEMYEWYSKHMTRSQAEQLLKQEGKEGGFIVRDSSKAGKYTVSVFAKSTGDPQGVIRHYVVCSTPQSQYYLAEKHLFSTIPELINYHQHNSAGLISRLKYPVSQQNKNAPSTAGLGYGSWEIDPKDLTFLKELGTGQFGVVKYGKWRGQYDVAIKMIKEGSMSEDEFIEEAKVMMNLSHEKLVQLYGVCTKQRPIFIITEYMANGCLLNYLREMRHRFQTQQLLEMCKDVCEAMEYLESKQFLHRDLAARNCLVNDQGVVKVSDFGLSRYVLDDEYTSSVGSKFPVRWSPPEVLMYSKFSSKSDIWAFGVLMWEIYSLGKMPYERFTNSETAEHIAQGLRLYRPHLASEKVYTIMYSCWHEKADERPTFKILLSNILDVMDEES

As usually defined, the IC50 is the concentration that inhibits the measured activity by half. A low value points to higher potency. `CC#CC(=O)N1CCC[C@@H](c2nc(-c3ccc(Oc4cccc(OC)c4F)cc3)c3c(C)ncc(C)n23)C1` [Example 77, (R)-1-(3-(1-(4-(2-fluoro-3-methoxyphenoxy)phenyl)-5,8-dimethylimidazo[1,5-a]pyrazin-3-yl)piperidin-1-yl)but-2-yn-1-one] returned an IC50 of 100 to 1000 nM.

In turn, `C=CC(=O)N1CCCC[C@H]1c1nc(-c2ccc(Oc3cccc(OC)c3F)cc2)c2cncc(C)n12` [Example 78, (S)-1-(2-(1-(4-(2-fluoro-3-methoxyphenoxy)phenyl)-5-methylimidazo[1,5-a]pyrazin-3-yl)piperidin-1-yl)prop-2-en-1-one] had a half-inhibitory concentration (IC50) of 10 to 100 nM.

Molecule `CC#CC(=O)N1CCCC[C@H]1c1nc(-c2ccc(Oc3cccc(OC)c3F)cc2)c2cncc(C)n12` [Example 79, (S)-1-(2-(1-(4-(2-fluoro-3-methoxyphenoxy)phenyl)-5-methylimidazo[1,5-a]pyrazin-3-yl)piperidin-1-yl)but-2-yn-1-one] showed an IC50 of 100 to 1000 nM.

`C=CC(=O)N1CCCC[C@H]1c1nc(-c2ccc(Oc3cccc(OC)c3F)cc2)c2c(C)ncc(C)n12` [Example 80, (S)-1-(2-(1-(4-(2-fluoro-3-methoxyphenoxy)phenyl)-5,8-dimethylimidazo[1,5-a]pyrazin-3-yl)piperidin-1-yl)prop-2-en-1-one] gave a concentration for half-maximal inhibition (IC50) of 10 to 100 nM.

`CC#CC(=O)N1CCCC[C@H]1c1nc(-c2ccc(Oc3cccc(OC)c3F)cc2)c2c(C)ncc(C)n12` [Example 81, (S)-1-(2-(1-(4-(2-fluoro-3-methoxyphenoxy)phenyl)-5,8-dimethylimidazo[1,5-a]pyrazin-3-yl)piperidin-1-yl)but-2-yn-1-one] yielded an IC50 of 100 to 1000 nM.

`C=CC(=O)N1CCC[C@H]1c1nc(-c2ccc(Oc3cccc(OC)c3F)cc2)c2cnc(C)cn12` [Example 83, (S)-1-(2-(1-(4-(2-fluoro-3-methoxyphenoxy)phenyl)-6-methylimidazo[1,5-a]pyrazin-3-yl)pyrrolidin-1-yl)prop-2-en-1-one] registered an IC50 of 10 to 100 nM.

`COc1cccc(Oc2ccc(-c3nc([C@@H]4CCN(C(=O)/C(C#N)=C/C(C)(C)C)C4)n4ccnc(C)c34)cc2)c1F` [Example 88, (R,E)-2-(3-(1-(4-(2-fluoro-3-methoxyphenoxy)phenyl)-8-methylimidazo[1,5-a]pyrazin-3-yl)pyrrolidine-1-carbonyl)-4,4-dimethylpent-2-enenitrile] returned a half-maximal inhibitory concentration (IC50) of 10 to 100 nM.

`CC#CC(=O)N1CC[C@@H](c2nc(-c3ccc(Oc4cccc(OC)c4F)cc3)c3cncc(OCCN(C)C)n23)C1` [Example 90, (R)-1-(3-(5-(2-(dimethylamino)ethoxy)-1-(4-(2-fluoro-3-methoxyphenoxy)phenyl)imidazo[1,5-a]pyrazin-3-yl)pyrrolidin-1-yl)but-2-yn-1-one] had an IC50 of 10 to 100 nM.

The molecule `CC#CC(=O)N1CC[C@@H](c2nc(-c3ccc(Oc4cccc(OC)c4F)cc3)c3cncc(OC4CCOC4)n23)C1` (stereo partly drawn) [Example 99, 1-((3R)-3-(1-(4-(2-fluoro-3-methoxyphenoxy)phenyl)-5-((tetrahydrofuran-3-yl)oxy)imidazo[1,5-a]pyrazin-3-yl)pyrrolidin-1-yl)but-2-yn-1-one] registered a concentration for half-maximal inhibition (IC50) of 10 to 100 nM.

The molecule `CC#CC(=O)N1CC[C@@H](c2nc(-c3ccc(Oc4cccc(OC)c4F)cc3)c3cncc(OC4CCC4)n23)C1` [Example 101, (R)-1-(3-(5-cyclobutoxy-1-(4-(2-fluoro-3-methoxyphenoxy)phenyl)imidazo[1,5-a]pyrazin-3-yl)pyrrolidin-1-yl)but-2-yn-1-one] showed a 50% inhibitory concentration (IC50) of 10 to 100 nM.

The molecule `CC#CC(=O)N1CC[C@@H](c2nc(-c3ccc(Oc4cccc(OC)c4F)cc3)c3cncc(OCCOC)n23)C1` [Example 103, (R)-1-(3-(1-(4-(2-fluoro-3-methoxyphenoxy)phenyl)-5-(2-methoxyethoxy)imidazo[1,5-a]pyrazin-3-yl)pyrrolidin-1-yl)but-2-yn-1-one] returned a concentration for half-maximal inhibition (IC50) of 10 to 100 nM.

Take `CC#CC(=O)N1CC[C@@H](c2nc(-c3ccc(Oc4cccc(OC)c4F)cc3)c3c(CC)nccn23)C1` [Example 107, (R)-1-(3-(8-ethyl-1-(4-(2-fluoro-3-methoxyphenoxy)phenyl)imidazo[1,5-a]pyrazin-3-yl)pyrrolidin-1-yl)but-2-yn-1-one]: the IC50 was 10 to 100 nM.

In the case of `C=CC(=O)N1CC[C@@H](c2nc(-c3ccc(Oc4cccc(OC)c4F)cc3)c3c(CCC)nccn23)C1` [Example 109, (R)-1-(3-(1-(4-(2-fluoro-3-methoxyphenoxy)phenyl)-8-propylimidazo[1,5-a]pyrazin-3-yl)pyrrolidin-1-yl)prop-2-en-1-one], the IC50 lay in the range of 100 to 1000 nM.

On to `CC#CC(=O)N1CC[C@@H](c2nc(-c3ccc(Oc4cccc(OC)c4F)cc3)c3c(CCC)nccn23)C1` [Example 110, (R)-1-(3-(1-(4-(2-fluoro-3-methoxyphenoxy)phenyl)-8-propylimidazo[1,5-a]pyrazin-3-yl)pyrrolidin-1-yl)but-2-yn-1-one], for which the IC50 was in the range of 1000 to 10000 nM.

As to `C=CC(=O)N1CC[C@@H](c2nc(-c3ccc(Oc4cccc(OC)c4F)cc3)c3c(C(C)C)nccn23)C1` [Example 111, (R)-1-(3-(1-(4-(2-fluoro-3-methoxyphenoxy)phenyl)-8-isopropylimidazo[1,5-a]pyrazin-3-yl)pyrrolidin-1-yl)prop-2-en-1-one], the half-inhibitory concentration (IC50) was in the range of 1000 to 10000 nM.

The molecule `C=CC(=O)N1CC[C@@H](c2nc(-c3ccc(Oc4cccc(OC)c4F)cc3)c3c(O)nccn23)C1` [Example 113, (R)-1-(3-(1-(4-(2-fluoro-3-methoxyphenoxy)phenyl)-8-hydroxyimidazo[1,5-a]pyrazin-3-yl)pyrrolidin-1-yl)prop-2-en-1-one] had an IC50 of 100 to 1000 nM.

In the case of `C=CC(=O)N1CC[C@@H](c2nc(-c3ccc(Oc4cccc(OC)c4F)cc3)c3cncc(OC(C)C)n23)C1` [Example 114, (R)-1-(3-(1-(4-(2-fluoro-3-methoxyphenoxy)phenyl)-5-isopropoxyimidazo[1,5-a]pyrazin-3-yl)pyrrolidin-1-yl)prop-2-en-1-one], the IC50 was 10 to 100 nM.

As to `CC#CC(=O)N1CC[C@@H](c2nc(-c3ccc(Oc4cccc(OC)c4F)cc3)c3cncc(OC(C)C)n23)C1` [Example 115, (R)-1-(3-(1-(4-(2-fluoro-3-methoxyphenoxy)phenyl)-5-isopropoxyimidazo[1,5-a]pyrazin-3-yl)pyrrolidin-1-yl)but-2-yn-1-one], the IC50 was in the range of 100 to 1000 nM.

Molecule `CC#CC(=O)N1CC[C@@H](c2nc(-c3ccc(Oc4cccc(OC)c4F)cc3)c3c(COC(C)=O)nccn23)C1` [Example 118, (R)-(3-(1-(but-2-ynoyl)pyrrolidin-3-yl)-1-(4-(2-fluoro-3-methoxyphenoxy)phenyl)imidazo[1,5-a]pyrazin-8-yl)methyl acetate] came in with a half-inhibitory concentration (IC50) of 100 to 1000 nM.

As for `CC#CC(=O)N1CC[C@@H](c2nc(-c3ccc(Oc4cccc(OC)c4F)cc3)c3c(CO)nccn23)C1` [Example 119, (R)-1-(3-(1-(4-(2-fluoro-3-methoxyphenoxy)phenyl)-8-(hydroxymethyl)imidazo[1,5-a]pyrazin-3-yl)pyrrolidin-1-yl)but-2-yn-1-one], the IC50 was 10 to 100 nM.

Take `CC#CC(=O)N1CC[C@@H](c2nc(-c3ccc(Oc4cccc(OC)c4F)cc3)c3c(CF)nccn23)C1` [Example 120, (R)-1-(3-(1-(4-(2-fluoro-3-methoxyphenoxy)phenyl)-8-(fluoromethyl)imidazo[1,5-a]pyrazin-3-yl)pyrrolidin-1-yl)but-2-yn-1-one]: the IC50 lay within 10 to 100 nM.

The molecule `C=CC(=O)N1CCCC[C@H]1c1nc(-c2ccc(Oc3cccc(OC)c3F)cc2)c2c(C(F)(F)F)nccn12` [Example 121, (S)-1-(2-(1-(4-(2-fluoro-3-methoxyphenoxy)phenyl)-8-(trifluoromethyl)imidazo[1,5-a]pyrazin-3-yl)piperidin-1-yl)prop-2-en-1-one] came in with an IC50 of 1000 to 10000 nM.

`CC#CC(=O)N1CCC[C@H]1c1nc(-c2ccc(Oc3cccc(OC)c3F)cc2)c2c(CO)nccn12` [Example 123, (S)-1-(2-(1-(4-(2-fluoro-3-methoxyphenoxy)phenyl)-8-(hydroxymethyl)imidazo[1,5-a]pyrazin-3-yl)pyrrolidin-1-yl)but-2-yn-1-one] showed a 50% inhibitory concentration (IC50) of 100 to 1000 nM.

`C=CC(=O)N1CCC[C@H]1c1nc(-c2ccc(OCc3cccc(F)c3F)cc2)c2cnccn12` [Example 124, (S)-1-(2-(1-(4-((2,3-Difluorobenzyl)oxy)phenyl)imidazo[1,5-a]pyrazin-3-yl)pyrrolidin-1-yl)prop-2-en-1-one]: the concentration for half-maximal inhibition (IC50) was in the range of 10 to 100 nM.

`C=CC(=O)N1CCC[C@H]1c1nc(-c2ccc(COc3ccccc3F)cc2)c2cnccn12` [Example 125, (S)-(2-(1-(4-((2-fluorophenoxy)methyl)phenyl)imidazo[1,5-a]pyrazin-3-yl)pyrrolidin-1-yl)prop-2-en-1-one] had an IC50 of 10 to 100 nM.

Turning to `C=CC(=O)N1CCC[C@H]1c1nc(-c2ccc(COc3ccc(F)cc3)cc2)c2cnccn12` [Example 126, (S)-1-(2-(1-(4-((4-fluorophenoxy)methyl)phenyl)imidazo[1,5-a]pyrazin-3-yl)pyrrolidin-1-yl)prop-2-en-1-one], the half-inhibitory concentration (IC50) lay within 10 to 100 nM.

In turn, `CC#CC(=O)N1CCC[C@H]1c1nc(-c2ccc(OCc3cccc(F)c3F)cc2)c2cnccn12` [Example 127, (S)-1-(2-(1-(4-((2,3-difluorobenzyl)oxy)phenyl)imidazo[1,5-a]pyrazin-3-yl)pyrrolidin-1-yl)but-2-yn-1-one] showed an IC50 of 1000 to 10000 nM.

Regarding `CC#CC(=O)N1CCC[C@H]1c1nc(-c2ccc(COc3ccc(F)cc3)cc2)c2cnccn12` [Example 128, (S)-1-(2-(1-(4-((4-fluorophenoxy)methyl)phenyl)imidazo[1,5-a]pyrazin-3-yl)pyrrolidin-1-yl)but-2-yn-1-one], the half-maximal inhibitory concentration (IC50) fell in the range of 1000 to 10000 nM.

The molecule `CC#CC(=O)N1CCC[C@H]1c1nc(-c2ccc(COc3cccc(F)c3F)cc2)c2cnccn12` [Example 130, (S)-1-(2-(1-(4-((2,3-difluorophenoxy)methyl)phenyl)imidazo[1,5-a]pyrazin-3-yl)pyrrolidin-1-yl)but-2-yn-1-one] yielded a 50% inhibitory concentration (IC50) of 1000 to 10000 nM.

Consider `CC#CC(=O)N1CCC[C@H]1c1nc(-c2ccc(COc3ccc(F)c(F)c3)cc2)c2cnccn12` [Example 132, (S)-l-(2-(1-(4-((3,4-difluorophenoxy)methyl)phenyl)imidazo[1,5-a]pyrazin-3-yl)pyrrolidin-1-yl)but-2-yn-1-one], for which the half-inhibitory concentration (IC50) was 1000 to 10000 nM.
